One data set concerns TMK1 cells. The experiment in a line: Cell viability (WST-8), TMK1. In kind it is cell-based. The conditions noted are these: Homo sapiens, TMK-1. The method, then: (§1) Cells were seeded at a density of 1 × 10^3 to 5 × 10^3 cells/well in a 96-well microplate or 1 × 10^4 to 5 × 10^4 cells/well in a six-well microplate on day 0 in triplicate, followed by treatment with drugs on day 1. The cell growth of HCT116 was estimated using IncuCyte (Essen BioScience, K.K.; Tokyo, Japan) for 94 h. The cell viability of SW480, HT29, and TMK1 was evaluated using a WST-8 [2-(2-methoxy-4-nitrophenyl)-3-(4-nitrophenyl)-5-(2, 4-disulfophenyl)-2H tetrazolium, monosodium salt] assay (Nacalai Tesque Inc., Kyoto, Japan). The numbers of cells of RKO, breast cancer cell lines, sarcoma cell lines, and neuroblastoma cell lines were counted using a microscope. The half-maximum inhibitory concentration (IC50) was obtained using the non-linear regression analysis of log (inhibitor) versus the normalized response with a variable slope using the GraphPad Prism software (GraphPad Software; La Jolla, CA).
(Formazan colour is commonly taken as a measure of viable cells.)

The test system of a further data set is HML58-3. Nature of the data set: Expression microarray. In kind it is cell-based, Human. Particulars: 1 μM, 58,341 probes. The method, then:
Cy3-labeled cRNA was synthesized from 100 ng of total RNA using a Low Input Quick Amp Labeling Kit, One-Color (Agilent Technologies, Santa Clara, CA), and 600 ng of labeled cRNA was fragmented and hybridized to SurePrint G3 Human Gene Expression 8 x 60K v3 Microarray (Agilent Technologies). The hybridized microarray was scanned with an Agilent G2600D microarray scanner (Agilent Technologies). The scanned data were processed using Feature Extraction software (Agilent Technologies) and analyzed using GeneSpring software (Agilent Technologies). The 75th percentile of the signal intensity of all probes was normalized to be 0, and the genes with signal intensities of − 1 or more were regarded as showing positive expression.

Data set [1] is described as follows: Pharmacokinetics in mice, intraperitoneal. The format is in vivo. Particulars: female, ICR, mouse, ip, 0.2 mg/kg, plasma, DAC (metabolite for OR compounds), equimolar dose, read-out: AUC 0 → lim, DAC. The method, then:
Six-week-old female ICR mice were intraperitoneally injected with 0.20 mg/kg of DAC, 0.29 mg/kg of OR-2003, 0.32 mg/kg of OR-2009, 0.30 mg/kg of OR-2100, and 0.31 mg/kg of OR-2102. The doses were decided so that equivalent amounts of molar concentration would be administered. The blood plasma was collected before and at 5, 15, 30, 45, 60, 90, and 120 min after the treatment. All experimental procedures were approved by the Committee of National Cancer Center.

The target of data set [2] is T1, human recombinant cytidine deaminase (Homo sapiens, UniProt P32320).
T1 construct: His; purchased AT Gen Co. Ltd; Seoul, Korea
T1 sequence (P32320 whole entry): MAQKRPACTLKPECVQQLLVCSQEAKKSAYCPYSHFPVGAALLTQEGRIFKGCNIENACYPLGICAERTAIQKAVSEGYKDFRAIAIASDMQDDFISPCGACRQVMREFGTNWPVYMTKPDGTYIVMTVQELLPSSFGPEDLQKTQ
The experiment in a line: Stability in the presence of cytidine deaminase. The format is in vitro ADME. Particulars: cytidine deaminase, after 0.5 h. From the text:
The remaining of the starting derivatives were continuously assayed using HPLC analytical conditions as described above.

In data set [3] the test system is exogenous UCHL1 promoter and OSR2 promoter CpG island. Nature of the data set: Quantitative methylation-specific PCR of marker genes. In kind it is cell-based, Human. Particulars: qMSP. As for the experimental part:
One microgram of EcoRV-digested genomic DNA was treated with sodium bisulfite as described previously. Bisulfite-treated DNA was resuspended in 40 μL of TE-buffer (10 mM Tris, pH 8.0; 1 mM EDTA, pH 8.0), and 1 μL was used for quantitative methylation-specific PCR (qMSP) using primers specific to methylated and unmethylated target loci, including MetLuc-UCHL1 promoter, OSR2 promoter, and UCHL1 promoter (Additional file 1: Table S1). As a fully unmethylated DNA control, genomic DNA from peripheral blood cells of a healthy person was amplified twice using a GenomiPhi DNA amplification kit (GE Healthcare Life Sciences; Little Chalfont, UK). As a fully methylated DNA control, the fully unmethylated DNA was methylated by SssI methylase (New England Biolabs; Beverly, MA).

Details of data set [4]: method as in Yoo C.B. et al. Cancer Research 2007; 67:6400–6408. Particulars: ref Yoo C.B. et al. Cancer Research 2007, 67:6400–6408; cited from earlier work.
The next data set deals with RKO cells. The experiment in a line: Cell growth inhibition, RKO. In kind it is cell-based, Human. The conditions noted are these: Homo sapiens. The method, then: as §1
Data set [5] can be described thus: Adverse effects in xenograft-bearing nude mice (body weight, blood count, biochemical tests). In kind it is in vivo. The method, then:
(§2) HCT116 cells (5.0 × 10^6 cells per mouse) were subcutaneously injected into the inguinal region of 6-week-old female nude mice (n = 81) (BALB/c-nu/nu; CLEA Japan, Tokyo, Japan). Once tumors reached an average volume of 80 mm^3, mice bearing xenograft tumors were randomly divided into nine groups and treated intraperitoneally with vehicle (5% DMSO in 10% 2-hydroxypropyl-β-cyclodextrin solution), DAC, OR-2003, or OR-2100. The length and width of tumors were measured with standard calipers twice per week, and tumor volumes were calculated using the formula tumor volume = (length × width^2) × 0.5. Body weight was measured twice per week. […] The remaining mice were categorized as group 1 and continuously treated with drugs. At 29 days after the treatment, tumors, major organs, bone marrow, and blood serum were collected from six mice and blood count and biochemical tests were performed. The mice were maintained under standard conditions according to the institutional guidelines for animal care.

The test system of another data set is DNMT1. Nature of the data set: DNMT1 western blot. The format is cell-based, Human. Particulars: HML58-3 cells. The method, then: Cells were seeded at a density of 3 × 10^5 cells/10-cm dish and treated with appropriate drug(s) 24 h after the initial seeding. On day 5, the cells were lysed in RIPA buffer (20 mM Tris-HCl, pH 7.6; 150 mM NaCl; 1 mM EDTA; 0.1% SDS; and 1% NP-40) containing 3 mM dithiothreitol, proteinase inhibitor cocktail (Nacalai Tesque; Kyoto, Japan). Proteins were resolved by SDS-PAGE and transferred to an Immobilon-P […] membrane (Merck Millipore; Billerica, MA). After blocking, each membrane was incubated with rabbit anti-DNMT1 antibody (Abcam, 1:1000) or mouse anti-PARP antibody (BD, 1:1000). Following three cycles of 10-min washes with PBS supplemented with 0.5% Tween 20 (PBS-T), blots were incubated with secondary antibodies (rabbit IgG, 1:1000; mouse IgG, 1:10000) and rewashed. Chemiluminescence was detected using an ECL kit (Biological Industries).
On the technique in general: In western blotting, separated proteins are transferred to a membrane and probed.

In another data set the test system is HCT116 cells. Nature of the data set: Cell growth inhibition, HCT116. The format is cell-based, Human. Particulars: Homo sapiens, HCT-116. As for the experimental part: as §1
For the next data set, the system named is HCT116 xenografts. Nature of the data set: Xenograft tumor formation assay in nude mice. In kind it is in vivo. The conditions noted are these: intraperitoneal, twice per week. As for the experimental part:
as §2

This is an account of results in article PMC6670186, “Novel prodrugs of decitabine with greater metabolic stability and less toxicity” (Clinical Epigenetics, 2019).

Entries after “also recorded” stand apart in the source; their conditions may differ.

By IC50 is commonly meant the concentration that gives 50% inhibition. The AUC is concentration integrated over time. In the case of `Nc1ncn([C@H]2C[C@H](O)[C@@H](CO)O2)c(=O)n1` [DAC, 2′-deoxy-5-azacytidine, reference compound], the IC50 in the data set with TMK1 cells worked out at 5830 nM; with RKO cells it was 0.2 nM; in the data set with HCT116 cells, 850 nM. Also, in the data set with HML58-3, the “number of genes upregulated more than twofold and to − 1.0 log2 value” is 2011. For the same molecule, in data set [1], the AUC turned out to be 0.378 µM·h. In addition, in [2], the Enzymatic stability result was “completely degraded; also recorded: Complete degradation after 0.5 h”. Besides, the “dose with strongest effect of DNA demethylation” value in data set [3] was determined as 1.0 µM. Further, the “Stability t1/2 in PBS” value in data set [4] was 20 h. The body weight entry in data set [5] (7.50 and 3.75 mg/kg, initial experiment) is “severe body weight loss”. Besides, the “WBC count and liver function (AST, ALT)” value in data set [5] (even at a lower dose (0.625 and 1.250 mg/kg)) is “affected”. Besides, the DNMT1 protein level entry in the data set on DNMT1 is “depleted at 3 and 10 μM”. Besides, the “tumor growth (tumor volume)” value with HCT116 xenografts was “suppressed the xenograft growth”.
